In patent publication US9700637B2, “Reaction-based fluorescent probes for detecting zinc” (Massachusetts Institute of Technology, priority 2013, dated 2017):
Where “and” joins values, the source holds several entries; their conditions need not be identical. Equal values may be shown once.

Key:
HeLa cells = test: Live cell fluorescence imaging: response to intracellular zinc (ZnPT/TPEN) and stability in cellulo; assay type: cell-based
Description: FIG. 5 depicts live cell imaging of HeLa cells that were bathed in a 1 μM solution of DA-ZP1-TPP in dye and serum free DMEM media for 30 min at 37° C. and 5% CO2. […] There was minimal fluorescent signal from DA-ZP1-TPP, consistent with the quenched fluorescent form of the sensor (top, right).
FIG. 24 depicts fluorescence images of live HeLa cells. HeLa cells were pretreated with a 1 μM solution of DA-ZP1-TPP in dye- and serum-free medium for 30 min (37° C., 5% CO2). […] The signal from MitoTracker Red (c) correlates well with the signal from the zinc-bound sensor (d). Pearson's r=0.64±0.1 (n=18). […]
We used HeLa cells as a model system to evaluate the ability of DA-ZP1-TPP to target mitochondria and respond to changes in intracellular zinc levels. Live HeLa cells were pretreated with medium containing 1 μM DA-ZP1-TPP and 250 nM MitoTracker Red for 30 min (37° C., 5% CO2) prior to imaging (FIG. 24). […] Over a two-hour period, the fluorescence intensity from the sensor remained constant, implying that the acetylated form is stable against intracellular esterases (FIG. 24e). […] Addition of 100 μM TPEN attenuated the fluorescence signal by ˜2.4-fold (FIG. 24f). […] We anticipate that this strategy will be applicable to related families of fluorophores. […]

[1] = Zinc-induced fluorescence response in cuvette (turn-on, quantum yield); assay type: physicochemical; conditions: for zinc-induced fluorescence response (turn-on): excess ZnCl2
Description: FIG. 2 depicts the normalized fluorescent spectra of DA-ZP1-TPP (also referred to as Ac2-ZP1-TPP) and ZP1-TPP in the absence (dashed line) and presence (solid line) of excess ZnCl2. Inset: The y-axis is magnified to aid in the visualization of the ˜7-fold “turn-on” of ZP1-TPP.
FIG. 20 depicts Zn(II)-dependent fluorescence signal enhancement of DA-ZP1-TPP. (a) Normalized fluorescence spectra of a 1 μM solution of DA-ZP1-TPP, in 50 mM PIPES buffer (pH 7) with 1 mM EDTA, 2 mM CaCl2, and 100 mM KCl, upon increasing concentrations of free zinc ions. (b) Zinc binding isotherm for the data in (a), normalized to the fluorescence signal under zinc saturating conditions (λex=495 nm).
Spectra were acquired in 50 mM PIPES (pH 7) with 100 mM KCl. For this titration, a single excitation wavelength of λex=485 nm was used.
The diacetylated version of ZP1-TPP, designated DA-ZP1-TPP, was readily prepared by reacting ZP1-TPP with acetic anhydride overnight at room temperature. Over the course of the reaction, the mixture turned from a dark, salmon-colored solution to a light, nearly colorless liquid, which was purified by HPLC. […] Addition of nanomolar concentrations of zinc ions results in a large increase in both the absorption λabs-Zn=510 nm) and fluorescence (λem-Zn=529 nm, FIG. 20a) spectral bands of DA-ZP1-TPP. These optical changes combine to yield a >140-fold increase in the fluorescence signal (ΦZn=0.75±0.03, FIG. 20). […] Whether the mode of zinc-mediated ester hydrolysis proceeds by internal or external hydroxide attack remains to be determined. […] Addition of a chelator (EDTA) attenuates the fluorescence signal ˜5-fold (Φ=0.15±0.02) in the cuvette (FIG. 22) with a concomitant redshift in the absorption spectrum (λabs=522 nm). Reversibility of the fluorescence signal is an important feature for zinc-responsive probes, because it allows confirmation that the observed increase in fluorescence signal is due to Zn(II) and not the result of an artifact. […]
Using DA-ZP1-A3 as a model system, we assessed its photophysical and zinc-binding properties (FIG. 26). […]

| SMILES | increase in fluorescence intensity on ZnPT (HeLa cells; live HeLa, 1 μM probe, 50 μM ZnPT) | period over which signal intensity was stable in cellulo (HeLa cells; live HeLa, 1 μM, no added zinc) | attenuation of fluorescence signal by TPEN (HeLa cells; live HeLa, 100 μM TPEN after 50 μM ZnPT) | attenuation of fluorescence signal by EDTA ([1]; chelator (EDTA) added after zinc) | zinc-induced fluorescence response (turn-on) [1] | response to changing intracellular zinc levels (HeLa cells; live HeLa cells) |
| --- | --- | --- | --- | --- | --- | --- |
| CC(=O)Oc1c(Cl)cc2c(c1CN(Cc1ccccn1)Cc1ccccn1)Oc1c(cc(Cl)c(OC(C)=O)c1CN(Cc1ccccn1)Cc1ccccn1)C21OC(=O)c2ccc(C(=O)NCC[P+](c3ccccc3)(c3ccccc3)c3ccccc3)cc21 [DA-ZP1-TPP] | ~12.1 fold and ~12 fold | 2 h | ~2.4 fold | ~5 fold | > 140 fold | – |
| O=C(NCC[P+](c1ccccc1)(c1ccccc1)c1ccccc1)c1ccc2c(c1)C1(OC2=O)c2cc(Cl)c(O)c(CN(Cc3ccccn3)Cc3ccccn3)c2Oc2c1cc(Cl)c(O)c2CN(Cc1ccccn1)Cc1ccccn1 [ZP1-TPP] | – | – | – | – | ~7 fold | did not respond significantly to changing intracellular zinc levels |
